Reference: patent US9018250B2, “Pharmaceutical composition and dosage form comprising dronedarone, and preparation method thereof” (Sanofi, priority 2010, dated 2015)
Converted amounts (≈) assume the structure as drawn. Where two headings read alike, the source gives them in different places.

Experiments:
[1] = In-vitro dissolution test with a jump in pH (simulated gastric pH 4, then simulated intestinal pH 6.5); format: physicochemical; settings: for percentage of active principle released (dissolution curves, in words): pH 4 for 60 min, then pH 6.5 up to 180 min, FIG. 1-7
Description: In order to reproduce the effect of pH on the active principle and in particular on its dissolution during its passage through the gastrointestinal tract, a gastrointestinal environment was simulated by reproducing the pH of the stomach and then the pH of the intestine with a jump in pH. The dissolution kinetics was investigated using a simple in-vitro dissolution test with a jump in pH.
The principle consists of determining the dissolution of the formulated active principle by studying its dissolution kinetics at 37° C., firstly in simulated gastric medium at pH 4, then in simulated intestinal medium at pH 6.5, in a time interval consistent with the gastrointestinal tract.
Equipment: precision balance (Mettler AE200 or AT261), pH meter (Knick or Schott Geräte or Inolab), thermostated Dissolutest 6 or 7 bowls (Sotax AT6 or AT7), 5 μm filter (PALL Versapore 25 mm) with syringe (Térumo), UV spectrophotometer (Gilford Response II or Perkin Elmer) or HPLC (Merck or Agilent).
Dissolution media: The simulated physiological media representative of the gastrointestinal tract are obtained from simulated gastric and intestinal fluids recommended by the USP, but used without pepsin or pancreatin. • simulated gastric fluid—USP (without pepsin): • 2 g of sodium chloride per 900 ml of distilled water, • pH adjusted to 1.2 with concentrated hydrochloric acid (37%), • Q.S. 1000 ml with distilled water. • simulated intestinal fluid—USP (without pancreatin): • 6.8 g of potassium dihydrogen phosphate per 900 ml of distilled water, • pH adjusted to 7.5 with concentrated sodium hydroxide (10 M), • Q.S. 1000 ml with distilled water.
The simulated gastric medium of pH 4 is thus obtained by mixing the two simulated fluids in various proportions, monitoring with a pH electrode. The dissolution medium of the intestinal type is adjusted to pH 6.5 with a few drops of concentrated soda (10M) to simulate passage of the active principle into the beginning of the intestine, without leading to dilution.
Standard solutions of active principle are prepared in a solvent medium, preferably in the mobile phase or ethanol or methanol, and then analyzed at the characteristic wavelength of the active principle. A calibration straight line showing the concentrations as a function of the optical densities (analysis by UV spectrophotometry) or of the areas under peak (HPLC analysis) is then determined. The equation of the straight line obtained can be used for determining the concentration of dissolved active principle from measurement of the optical density or of the area under peak.
The concentration used corresponds to the dose in 250 ml (i.e. 4 capsules in a 500-ml bowl). The dissolution kinetics is first investigated in simulated gastric medium of pH 4 in the dissolution test in bowls thermostated at 37° C., with paddle stirring at 75 rpm, for 1 hour with sampling at times 5, 15, 30, 45 and 60 minutes, then in intestinal medium with an increase in pH to 6.5 by adding a small volume of concentrated soda (example: 0.400 ml for 500 ml of medium at pH 4), monitoring with a pH electrode. The kinetics is monitored for 3 hours with sampling at times 75, 90, 120 and 180 minutes and each sample is filtered at 5 μm and then analyzed.
Two methods of analysis can be used depending on the sensitivity required and the dosage form under investigation: UV spectrophotometry (for active principle only) or HPLC (for active principle only or formulated).
The concentration at a time t is determined based on the previously established calibration. During analysis by UV spectrophotometry, the whole absorption spectrum is monitored at least at the end of the kinetic study. In addition, the pH of the medium is monitored at the end of the kinetic study. […]

[2] = cited from earlier work
[3] = Solubility of dronedarone hydrochloride and base form in lipid excipients (Table A); format: physicochemical
[4] = cited from earlier work; remark: listed apart in the source
[5] = surfactant Chrem RH40 (HLB 14), capsules G24 (HCl) / G25 (base)
[6] = surfactant Pluronic L44 (HLB 12), capsules G26 (HCl) / G27 (base), pH 6.5 after jump, 37° C.
[7] = surfactant Polox 188 (HLB 29), capsules G22 (HCl) / G23 (base)
[8] = surfactant Polox 407 (HLB 22), capsules G1 (HCl) / G5 (base)
[9] = surfactant Tween 60 (HLB 15), capsules G28 (HCl) / G29 (base)
[10] = Capmul PG8 (HLB 5), oil or lipid, in Capmul PG8 (HLB 5), RT, read-out: Solubility
[11] = Captex 355, oil or lipid, in Captex 355, RT, read-out: Solubility
[12] = Cremophor RH 40 (HLB 14), 55 °C, oil or lipid, in Cremophor RH 40 (HLB 14), 55° C., read-out: Solubility
[13] = Gelucire 33/01 (HLB 1), 55 °C, oil or lipid, in Gelucire 33/01 (HLB 1), 55° C., read-out: Solubility
[14] = Gelucire 43/01 (HLB 1), 55 °C, oil or lipid, in Gelucire 43/01 (HLB 1), 55° C., read-out: Solubility
[15] = Labrafac PG, oil or lipid, in Labrafac PG, RT, read-out: Solubility
[16] = Labrafil M1944Cs, oil or lipid, in Labrafil M1944Cs, RT, read-out: Solubility
[17] = Labrasol ALF, oil or lipid, in Labrasol ALF, RT, read-out: Solubility
[18] = Lauroglycol 90, oil or lipid, in Lauroglycol 90, RT, read-out: Solubility
[19] = Lipophilic Labrafac, oil or lipid, in Lipophilic Labrafac, RT, read-out: Solubility
[20] = Miglyol 812N, oil or lipid, in Miglyol 812N, RT, read-out: Solubility
[21] = PEG 400, organic solvent or mixture, in PEG 400, RT, read-out: Solubility
[22] = propylene glycol, organic solvent or mixture, in propylene glycol, RT, read-out: Solubility
[23] = soybean oil, oil or lipid, in soybean oil, RT, read-out: Solubility

Row | SMILES | percentage of active principle released (dissolution curves, in words) [1] | % of dronedarone at 180 min [1, 5] [%] | % of dronedarone at 180 min [1, 6] [%] | % of dronedarone at 180 min [1, 7] [%] | % of dronedarone at 180 min [1, 8] [%] | % of dronedarone at 180 min [1, 9] [%] | solubility [3, 10] [mg/mL] | solubility [3, 11] [mg/mL] | solubility [3, 12] [mg/mL] | solubility [3, 13] [mg/mL] | solubility [3, 14] [mg/mL] | solubility [3, 15] [mg/mL] | solubility [3, 16] [mg/mL] | solubility [3, 17] [mg/mL] | solubility [3, 18] [mg/mL] | solubility [3, 19] [mg/mL] | solubility [3, 20] [mg/mL] | solubility [3, 21] [mg/mL] | solubility [3, 22] [mg/mL] | solubility [3, 23] [mg/mL] | also measured
1 | CCCCc1oc2ccc(NS(C)(=O)=O)cc2c1C(=O)c1ccc(OCCCN(CCCC)CCCC)cc1 [Dronedarone Base, 2-n-butyl-3-[4-(3-di-n-butylaminopropoxy)benzoyl]-5-methylsulfonamidobenzofuran] | equivalent regardless of which nonionic surfactant is used | 85.3 | 76.38 | 71.32 | 72.89 | 81.12 | 517 (≈ 929 mM) | 167 (≈ 299 mM) | > 313 | 371 (≈ 667 mM) | 259 (≈ 465 mM) | 184 (≈ 330 mM) | 208 (≈ 374 mM) | 401 (≈ 721 mM) | 311 (≈ 558 mM) | 129 (≈ 231 mM) | 144 (≈ 258 mM) | 273 (≈ 491 mM) | 18.2 (≈ 32.7 mM) | 60.7 (≈ 109 mM) | absolute bioavailability ([2]; taken with food): no more than 15%; absorption after oral administration ([2]; with a meal): at least 70%; solubility ([3]; Crodamol EO (ethyl oleate), oil or lipid, in Crodamol EO (ethyl oleate), RT, read-out: Solubility): 154 mg/mL (≈ 276 mM); solubility ([3]; Gelucire 44/14 (HLB 14), 55 °C, oil or lipid, in Gelucire 44/14 (HLB 14), 55° C., read-out: Solubility): 633 mg/mL (≈ 1140 mM); solubility ([3]; Labrasol, oil or lipid, in Labrasol, RT, read-out: Solubility): > 400 mg/mL; solubility ([3]; ethanol, organic solvent or mixture, in ethanol, RT, read-out: Solubility): > 500 mg/mL; solubility ([3]; in Labrafil M1944Cs, RT): 192.6 mg/mL (≈ 346 mM); solubility ([3]; in Miglyol 812N, RT): 141.6 mg/mL (≈ 254 mM); solubility ([3]; in PEG 400, RT): 280.1 mg/mL (≈ 503 mM); solubility ([3]; in soybean oil, RT): 87.7 mg/mL (≈ 158 mM); solubility ([3]; oleic acid, oil or lipid, in Oleic acid, RT, read-out: Solubility): > 341 mg/mL; solubility ([3]; sweet almond oil, oil or lipid, in sweet almond oil, RT, read-out: Solubility): 45.2 mg/mL (≈ 81.2 mM)
2 | CCCCc1oc2ccc(NS(C)(=O)=O)cc2c1C(=O)c1ccc(OCCCN(CCCC)CCCC)cc1.Cl [Dronedarone Hydrochloride, 2-n-butyl-3-[4-(3-di-n-butylaminopropoxy)benzoyl]-5-methylsulfonamidobenzofuran hydrochloride] | better profiles for an HLB between 15 and 25 | 59.01 | 49.1 | 69.82 | 90.49 | 58.32 | 10 | 0.0353 | 14.8 | 0.0962 | 0.0445 | 0.0416 | 0.504 | 4.84 | 2.09 | 0.0251 | 0.0409 | 13.2 | 15.8 | 0.0231 | behaviour on dilution to 1/10 with aqueous solution buffered at pH=7 ([4]; final pH of the medium=6.7): is precipitated; solubility ([4]; room temperature, pH=7): no more than 10 μg/ml
